In PMC12018053 (Biochemistry and Biophysics Reports, 2025):
≈ marks a conversion by molar mass, not a printed value.

What was measured:
[1] = target: T1, Mouse sEH (Mus musculus, UniProt P34914); assay: sEH fluorescent-based inhibition assay; assay type: biochemical
T1 sequence (P34914 1-554): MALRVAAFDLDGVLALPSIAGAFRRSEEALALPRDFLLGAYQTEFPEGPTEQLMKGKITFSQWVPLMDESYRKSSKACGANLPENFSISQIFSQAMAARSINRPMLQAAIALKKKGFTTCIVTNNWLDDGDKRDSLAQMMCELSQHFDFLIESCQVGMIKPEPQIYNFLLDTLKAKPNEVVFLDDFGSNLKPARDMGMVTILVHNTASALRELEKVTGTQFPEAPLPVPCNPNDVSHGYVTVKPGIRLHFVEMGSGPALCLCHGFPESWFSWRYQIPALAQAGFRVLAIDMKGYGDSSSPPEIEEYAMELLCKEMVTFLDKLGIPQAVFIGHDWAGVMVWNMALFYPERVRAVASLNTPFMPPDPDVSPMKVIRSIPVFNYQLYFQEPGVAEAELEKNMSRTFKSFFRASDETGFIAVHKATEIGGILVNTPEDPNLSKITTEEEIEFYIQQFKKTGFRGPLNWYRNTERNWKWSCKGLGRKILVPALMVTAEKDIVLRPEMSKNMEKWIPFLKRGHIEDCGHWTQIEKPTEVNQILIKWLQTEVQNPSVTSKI

[2] = target: 5-HT2A (Homo sapiens, UniProt P28223); assay: NIMH PDSP primary binding screen, 5-HT2A; details: read-out: Inhibition (%) 5-HT2A
[3] = target: Delta opioid (DOR) (Homo sapiens, UniProt P41143); assay: NIMH PDSP primary binding screen, DOR; details: read-out: Inhibition (%) Delta opioid (DOR)
[4] = target: T2, 5-HT3 (Homo sapiens, UniProt P46098); assay: NIMH PDSP primary binding screen, 5-HT3; details: read-out: Inhibition (%) 5-HT3
T2 sequence (P46098 24-478): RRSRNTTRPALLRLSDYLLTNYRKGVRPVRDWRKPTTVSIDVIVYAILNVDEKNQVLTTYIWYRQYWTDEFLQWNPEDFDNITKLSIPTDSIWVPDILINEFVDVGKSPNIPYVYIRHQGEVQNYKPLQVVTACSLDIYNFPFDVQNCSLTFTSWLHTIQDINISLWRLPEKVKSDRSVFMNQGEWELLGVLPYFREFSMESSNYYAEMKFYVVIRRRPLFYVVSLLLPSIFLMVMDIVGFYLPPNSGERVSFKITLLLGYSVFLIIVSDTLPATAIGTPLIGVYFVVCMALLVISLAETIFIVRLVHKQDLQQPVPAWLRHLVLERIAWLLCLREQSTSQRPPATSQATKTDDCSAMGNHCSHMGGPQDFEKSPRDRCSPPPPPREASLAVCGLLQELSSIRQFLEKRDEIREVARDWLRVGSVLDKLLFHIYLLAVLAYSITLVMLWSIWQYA

[5] = target: 5-HT1D (Homo sapiens, UniProt P28221); assay: NIMH PDSP primary binding screen, 5-HT1D; details: read-out: Inhibition (%) 5-HT1D
[6] = target: 5-HT1B (Homo sapiens, UniProt P28222); assay: NIMH PDSP primary binding screen, 5-HT1B; details: read-out: Inhibition (%) 5-HT1B
[7] = target: T3, Human sEH (Homo sapiens, UniProt P34913); assay: sEH fluorescent-based inhibition assay; assay type: biochemical
T3 sequence (P34913 1-555): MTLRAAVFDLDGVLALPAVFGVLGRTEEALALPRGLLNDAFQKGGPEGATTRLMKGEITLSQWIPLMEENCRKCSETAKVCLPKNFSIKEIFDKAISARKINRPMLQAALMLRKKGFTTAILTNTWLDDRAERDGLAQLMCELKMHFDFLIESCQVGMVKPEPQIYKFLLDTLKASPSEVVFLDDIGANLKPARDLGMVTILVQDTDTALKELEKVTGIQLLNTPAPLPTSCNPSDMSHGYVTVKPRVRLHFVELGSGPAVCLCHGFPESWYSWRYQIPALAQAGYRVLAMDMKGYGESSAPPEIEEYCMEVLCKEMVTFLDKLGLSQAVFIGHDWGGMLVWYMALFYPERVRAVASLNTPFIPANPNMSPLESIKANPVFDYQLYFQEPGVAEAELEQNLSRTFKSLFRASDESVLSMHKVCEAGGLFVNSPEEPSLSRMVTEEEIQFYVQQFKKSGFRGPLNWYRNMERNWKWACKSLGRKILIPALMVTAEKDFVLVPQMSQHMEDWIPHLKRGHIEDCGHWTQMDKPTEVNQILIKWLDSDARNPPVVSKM

[8] = Microsomal stability assay in rat liver microsomes; assay type: in vitro ADME; details: pH 7.4
[9] = system: female Sprague-Dawley rats; assay: Orofacial formalin test without nitroglycerin; assay type: in vivo, rat; details: 3 mg/kg i.p. 30 min before formalin, no nitroglycerin pretreatment
[10] = target: Mu opioid (MOR) (Homo sapiens, UniProt P35372); assay: NIMH PDSP primary binding screen, MOR; details: read-out: Inhibition (%) Mu opioid (MOR)
[11] = Microsomal stability assay in human liver microsomes; assay type: in vitro ADME; details: pH 7.4
[12] = target: Kappa opioid (KOR) (Homo sapiens, UniProt P41145); assay: NIMH PDSP primary binding screen, KOR; details: read-out: Inhibition (%) Kappa opioid (KOR)
[13] = physchem; details: sodium phosphate buffer, 24 °C, pH 7.4, aqueous buffer, kinetic from dmso stock
[14] = target: T4, 5-HT2C (Homo sapiens, UniProt P28335); assay: NIMH PDSP primary binding screen, 5-HT2C; details: read-out: Inhibition (%) 5-HT2C
T4 sequence (P28335 33-458): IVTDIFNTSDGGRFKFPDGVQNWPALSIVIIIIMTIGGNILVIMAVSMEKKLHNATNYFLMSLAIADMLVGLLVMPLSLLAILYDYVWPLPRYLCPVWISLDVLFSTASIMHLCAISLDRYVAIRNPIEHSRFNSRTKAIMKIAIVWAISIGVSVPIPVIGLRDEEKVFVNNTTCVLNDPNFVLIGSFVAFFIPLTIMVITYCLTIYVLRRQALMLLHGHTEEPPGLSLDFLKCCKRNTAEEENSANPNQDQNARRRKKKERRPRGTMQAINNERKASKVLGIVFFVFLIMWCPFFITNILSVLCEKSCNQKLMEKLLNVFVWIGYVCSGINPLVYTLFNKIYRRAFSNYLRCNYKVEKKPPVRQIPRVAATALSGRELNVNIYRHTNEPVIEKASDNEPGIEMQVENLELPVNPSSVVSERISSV

5-HT1D, sequence (P28221 whole entry, species assumed): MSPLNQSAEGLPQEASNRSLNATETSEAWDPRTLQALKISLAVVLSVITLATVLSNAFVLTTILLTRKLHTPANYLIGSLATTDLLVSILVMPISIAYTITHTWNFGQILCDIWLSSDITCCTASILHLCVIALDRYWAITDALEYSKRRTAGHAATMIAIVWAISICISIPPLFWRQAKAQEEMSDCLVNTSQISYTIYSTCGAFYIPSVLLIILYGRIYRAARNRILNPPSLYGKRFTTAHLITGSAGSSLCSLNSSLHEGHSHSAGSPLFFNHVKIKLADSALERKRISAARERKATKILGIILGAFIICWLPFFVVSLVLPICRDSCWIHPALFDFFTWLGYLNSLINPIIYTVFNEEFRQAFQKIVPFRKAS
5-HT2A, sequence (P28223 whole entry, species assumed): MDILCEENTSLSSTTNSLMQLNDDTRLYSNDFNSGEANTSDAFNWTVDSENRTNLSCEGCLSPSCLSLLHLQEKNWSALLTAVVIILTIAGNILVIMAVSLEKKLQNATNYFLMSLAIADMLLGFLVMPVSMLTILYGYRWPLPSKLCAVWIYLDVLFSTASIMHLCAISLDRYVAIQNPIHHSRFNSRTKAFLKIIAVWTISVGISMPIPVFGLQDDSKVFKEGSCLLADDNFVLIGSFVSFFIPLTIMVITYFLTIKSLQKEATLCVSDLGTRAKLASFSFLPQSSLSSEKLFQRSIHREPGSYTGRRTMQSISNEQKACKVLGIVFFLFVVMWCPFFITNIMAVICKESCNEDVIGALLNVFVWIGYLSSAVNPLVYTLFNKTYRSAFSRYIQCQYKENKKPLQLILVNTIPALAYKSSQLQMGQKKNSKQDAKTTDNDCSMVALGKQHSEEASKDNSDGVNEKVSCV
Delta opioid (DOR), sequence (P41143 whole entry): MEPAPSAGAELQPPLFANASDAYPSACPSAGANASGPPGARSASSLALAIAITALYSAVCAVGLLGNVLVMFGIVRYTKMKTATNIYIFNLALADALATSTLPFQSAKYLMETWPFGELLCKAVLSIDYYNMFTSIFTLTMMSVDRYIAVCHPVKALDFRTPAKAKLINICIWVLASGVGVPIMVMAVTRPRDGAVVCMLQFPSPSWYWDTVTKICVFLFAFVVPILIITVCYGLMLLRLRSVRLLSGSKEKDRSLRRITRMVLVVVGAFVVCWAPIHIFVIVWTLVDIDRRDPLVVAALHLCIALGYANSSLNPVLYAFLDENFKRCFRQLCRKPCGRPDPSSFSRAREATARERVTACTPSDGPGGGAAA
Kappa opioid (KOR), sequence (P41145 whole entry): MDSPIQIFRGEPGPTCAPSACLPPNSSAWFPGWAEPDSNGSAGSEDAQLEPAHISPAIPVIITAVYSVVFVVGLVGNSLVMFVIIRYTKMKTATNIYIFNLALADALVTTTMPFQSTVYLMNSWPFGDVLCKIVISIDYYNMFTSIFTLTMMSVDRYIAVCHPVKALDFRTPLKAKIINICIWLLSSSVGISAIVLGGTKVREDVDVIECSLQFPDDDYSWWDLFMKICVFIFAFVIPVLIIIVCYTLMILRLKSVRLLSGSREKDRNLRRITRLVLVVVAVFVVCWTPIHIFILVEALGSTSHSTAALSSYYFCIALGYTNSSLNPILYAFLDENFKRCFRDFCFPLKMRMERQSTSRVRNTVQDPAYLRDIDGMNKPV
5-HT1B, sequence (P28222 whole entry, species assumed): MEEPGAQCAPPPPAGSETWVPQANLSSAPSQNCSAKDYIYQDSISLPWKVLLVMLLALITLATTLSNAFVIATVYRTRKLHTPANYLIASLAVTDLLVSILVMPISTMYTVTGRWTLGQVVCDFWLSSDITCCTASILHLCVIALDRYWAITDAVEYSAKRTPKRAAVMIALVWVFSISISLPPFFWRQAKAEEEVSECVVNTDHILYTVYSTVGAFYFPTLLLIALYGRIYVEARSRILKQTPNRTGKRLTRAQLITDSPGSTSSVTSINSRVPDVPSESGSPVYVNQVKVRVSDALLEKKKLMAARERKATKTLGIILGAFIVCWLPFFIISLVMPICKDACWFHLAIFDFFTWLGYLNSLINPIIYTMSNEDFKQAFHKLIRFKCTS
Mu opioid (MOR), sequence (P35372 whole entry): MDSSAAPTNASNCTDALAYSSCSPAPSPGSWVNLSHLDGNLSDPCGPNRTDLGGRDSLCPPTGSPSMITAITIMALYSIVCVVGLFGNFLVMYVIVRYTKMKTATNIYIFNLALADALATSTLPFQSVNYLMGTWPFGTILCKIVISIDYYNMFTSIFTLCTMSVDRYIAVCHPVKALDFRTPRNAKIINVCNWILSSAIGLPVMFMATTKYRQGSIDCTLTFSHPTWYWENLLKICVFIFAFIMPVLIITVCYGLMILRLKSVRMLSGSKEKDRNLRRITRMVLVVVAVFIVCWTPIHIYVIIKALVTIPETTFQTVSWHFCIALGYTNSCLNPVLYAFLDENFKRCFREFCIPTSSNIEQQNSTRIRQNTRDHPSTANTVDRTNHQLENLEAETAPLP

IC50 [1]: 107 nM
inhibition at 10 µM [2]: 17.4 ± 4.69%
inhibition at 10 µM [3]: 3.1 ± 1.53%
inhibition at 10 µM [4]: -0.28 ± 5.94%
inhibition at 10 µM [5]: 40.9 ± 11.2%
inhibition at 10 µM [6]: 12.4 ± 2.29%
IC50 [7]: 2.2 nM
half-life at 1 µM [8]: 25.6 min
microsomal CLint at 1 µM [8]: 54 µL/min/mg
inhibition at 10 µM [10]: 10.6 ± 4.75%
half-life at 1 µM [11]: 58 min
microsomal CLint at 1 µM [11]: 23.7 µL/min/mg
inhibition at 10 µM [12]: -18.1 ± 2.56%
solubility [13]: 54.4 µM (≈ 27.5 µg/mL)
inhibition at 10 µM [14]: 21.5 ± 4.63%
SMILES: O=C(Nc1ccc(-c2ccc3ccncc3c2)cc1)C1CCN(S(=O)(=O)c2ccccc2Cl)CC1 [Compound 4f, 1-((2-chlorophenyl)sulfonyl)-N-(4-(isoquinolin-7-yl)phenyl)piperidine-4-carboxamide]
Time spent rubbing the injected area vs vehicle [9]: no significant difference
